Patent publication US11685729B2, “C5a receptor modulators” (IDORSIA PHARMACEUTICALS LTD., priority 2018, dated 2023)

Target: C5AR1 (Homo sapiens (Human), UniProt P21730)
Assay: In vitro assay: PathHunter beta-arrestin antagonist assay in CHO-K1 C5AR1 beta-arrestin cell line, stimulated with C5a agonist
Conditions: not given

C5AR1, sequence (P21730 whole entry): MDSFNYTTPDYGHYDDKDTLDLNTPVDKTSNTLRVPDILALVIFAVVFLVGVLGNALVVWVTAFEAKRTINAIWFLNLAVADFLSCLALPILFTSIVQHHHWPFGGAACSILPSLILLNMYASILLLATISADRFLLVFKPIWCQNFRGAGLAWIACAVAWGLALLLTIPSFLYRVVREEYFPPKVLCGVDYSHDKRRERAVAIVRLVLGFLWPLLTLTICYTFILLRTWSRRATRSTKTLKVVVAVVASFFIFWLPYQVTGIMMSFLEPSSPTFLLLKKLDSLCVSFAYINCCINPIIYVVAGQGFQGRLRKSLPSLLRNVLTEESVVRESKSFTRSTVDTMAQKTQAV

In the case of `Cc1cccc(F)c1N1CCC(N2Cc3ccccc3N(Cc3nnccc3OC(C)C)C2=O)CC1` [Example 80, 3-[1-(2-Fluoro-6-methyl-phenyl)-piperidin-4-yl]-1-(4-isopropoxy-pyridazin-3-ylmethyl)-3,4-dihydro-1H-quinazolin-2-one], the IC50 is reported as 1790 nM.

Same assay, conditions: read-out: C5aR IC50; CHO-K1 C5AR1 beta-arrestin cell line; 1-10 nM C5a agonist; geometric mean values

Point of comparison: `Cc1cccc(F)c1N1CCC(N2Cc3ccccc3N(Cc3ccccc3Cl)C2=O)CC1` [Example 75, 1-(2-Chloro-benzyl)-3-[1-(2-fluoro-6-methyl-phenyl)-piperidin-4-yl]-3,4-dihydro-1H-quinazolin-2-one], IC50 55 nM. Against it:
- Cc1cccc(Cl)c1N1CCC(N2Cc3ccccc3N(Cc3ccccc3C(F)(F)F)C2=O)CC1 [Example 79, 3-[1-(2-Chloro-6-methyl-phenyl)-piperidin-4-yl]-1-(2-trifluoromethyl-benzyl)-3,4-dihydro-1H-quinazolin-2-one] — within 1.5-fold, 57 nM
- Cc1cccc(F)c1N1CC(N2Cc3ccccc3N(Cc3ccccc3C(F)(F)F)C2=O)C1 [Example 81, 3-[1-(2-Fluoro-6-methyl-phenyl)-azetidin-3-yl]-1-(2-trifluoromethyl-benzyl)-3,4-dihydro-1H-quinazolin-2-one] — 23-fold higher, 1280 nM
- CCOc1ccccc1CN1C(=O)N(C2CCN(c3c(C)cccc3F)CC2)Cc2ccccc21 [Example 46, 1-(2-Ethoxy-benzyl)-3-[1-(2-fluoro-6-methyl-phenyl)-piperidin-4-yl]-3,4-dihydro-1H-quinazolin-2-one] — 1.6-fold lower, 35 nM
- Cc1cccc(F)c1N1CCC(N2Cc3cncnc3N(Cc3ccccc3C(F)(F)F)C2=O)CC1 [Example 64, 3-[1-(2-Fluoro-6-methyl-phenyl)-piperidin-4-yl]-1-(2-trifluoromethyl-benzyl)-3,4-dihydro-1H-pyrimido[4,5-d]pyrimidin-2-one] — 14-fold higher, 782 nM
- Cc1ccnc(C)c1N1CCC(N2Cc3ccccc3N(Cc3ccccc3C(F)(F)F)C2=O)CC1 [Example 28, 3-(2′,4′-Dimethyl-3,4,5,6-tetrahydro-2H-[1,3′]bipyridinyl-4-yl)-1-(2-trifluoromethyl-benzyl)-3,4-dihydro-1H-quinazolin-2-one] — 5.2-fold higher, 287 nM
- Cc1cccc(F)c1N1CCC(N2C(=O)N(Cc3ccccc3C(F)(F)F)c3ccccc3C2C)CC1 (racemic) [Example 70, 3-[1-(2-Fluoro-6-methyl-phenyl)-piperidin-4-yl]-4-methyl-1-(2-trifluoromethyl-benzyl)-3,4-dihydro-1H-quinazolin-2-one] — 3.7-fold higher, 205 nM
- Cc1nn(C)c(N2CCC(N3Cc4ccccc4N(Cc4ccccc4C(F)(F)F)C3=O)CC2)c1Cl [Example 73, 3-[1-(4-Chloro-2,5-dimethyl-2H-pyrazol-3-yl)-piperidin-4-yl]-1-(2-trifluoromethyl-benzyl)-3,4-dihydro-1H-quinazolin-2-one] — 24-fold higher, 1340 nM
- COC(=O)C(c1ccccc1OC)N1C(=O)N(C2CCN(c3c(C)cccc3F)CC2)Cc2ccccc21 (centres unmarked) [Example 49, {3-[1-(2-Fluoro-6-methyl-phenyl)-piperidin-4-yl]-2-oxo-3,4-dihydro-2H-quinazolin-1-yl}-(2-methoxy-phenyl)-acetic acid methyl ester] — 1.9-fold higher, 102 nM
- Cc1cccc(F)c1N1CCC(N2Cc3ccccc3N(Cc3ncccc3C(F)(F)F)C2=O)CC1 [Example 69, 3-[1-(2-Fluoro-6-methyl-phenyl)-piperidin-4-yl]-1-(3-trifluoromethyl-pyridin-2-ylmethyl)-3,4-dihydro-1H-quinazolin-2-one] — 4.2-fold lower, 13 nM
- Cn1nc(C2CC2)c(Cl)c1N1CCC(N2Cc3ccccc3N(Cc3ccccc3C(F)(F)F)C2=O)CC1 [Example 12, 3-[1-(4-Chloro-5-cyclopropyl-2-methyl-2H-pyrazol-3-yl)-piperidin-4-yl]-1-(2-trifluoromethyl-benzyl)-3,4-dihydro-1H-quinazolin-2-one] — 12-fold higher, 679 nM
- N#Cc1cccc(F)c1N1CCC(N2Cc3ccccc3N(Cc3nccnc3C(F)(F)F)C2=O)CC1 [Example 38, 3-Fluoro-2-{4-[2-oxo-1-(3-trifluoromethyl-pyrazin-2-ylmethyl)-1,4-dihydro-2H-quinazolin-3-yl]-piperidin-1-yl}-benzonitrile] — 3.8-fold higher, 211 nM
- COc1cccc(F)c1N1CC[C@H](N2Cc3ccccc3N(Cc3ccccc3C(F)(F)F)C2=O)C1 [Example 17, 3-[(S)-1-(2-Fluoro-6-methoxy-phenyl)-pyrrolidin-3-yl]-1-(2-trifluoromethyl-benzyl)-3,4-dihydro-1H-quinazolin-2-one] — 7.9-fold higher, 437 nM
- Cc1cccc(F)c1N1CCC(N2Cc3ccccc3N(Cc3ccccc3OC3CC3)C2=O)CC1 [Example 68, 1-(2-Cyclopropoxy-benzyl)-3-[1-(2-fluoro-6-methyl-phenyl)-piperidin-4-yl]-3,4-dihydro-1H-quinazolin-2-one] — within 1.5-fold, 66 nM
- COc1cccc2c1N(Cc1ccccc1C(F)(F)F)C(=O)N([C@@H]1CCN(c3c(F)cccc3F)C1)C2 [Example 8, 3-[(R)-1-(2,6-Difluoro-phenyl)-pyrrolidin-3-yl]-8-methoxy-1-(2-trifluoromethyl-benzyl)-3,4-dihydro-1H-quinazolin-2-one] — 1.9-fold higher, 104 nM
- COc1cccc(F)c1N1CCC(N2Cc3cccc(OC)c3N(Cc3ccccc3C(F)(F)F)C2=O)CC1 [Example 5, 3-[1-(2-Fluoro-6-methoxy-phenyl)-piperidin-4-yl]-8-methoxy-1-(2-trifluoromethyl-benzyl)-3,4-dihydro-1H-quinazolin-2-one] — 5.5-fold higher, 300 nM
- O=C1N(Cc2ccccc2C(F)(F)F)c2ccccc2CN1C1CCN(c2c(F)cccc2C(F)(F)F)CC1 [Example 76, 3-[1-(2-Fluoro-6-trifluoromethyl-phenyl)-piperidin-4-yl]-1-(2-trifluoromethyl-benzyl)-3,4-dihydro-1H-quinazolin-2-one] — within 1.5-fold, 50 nM
- Cc1cccc(F)c1N1CCC(N2Cc3ccccc3N(Cc3cncnc3C(C)C)C2=O)CC1 [Example 63, 3-[1-(2-Fluoro-6-methyl-phenyl)-piperidin-4-yl]-1-(4-isopropyl-pyrimidin-5-ylmethyl)-3,4-dihydro-1H-quinazolin-2-one] — within 1.5-fold, 61 nM
- COc1ccccc1N1CC[C@@H](N2Cc3ccccc3N(Cc3ccccc3C(F)(F)F)C2=O)C1 [Example 20, 3-[(R)-1-(2-Methoxy-phenyl)-pyrrolidin-3-yl]-1-(2-trifluoromethyl-benzyl)-3,4-dihydro-1H-quinazolin-2-one] — 3.3-fold higher, 181 nM
- O=C1N(Cc2ccccc2C(F)(F)F)c2ccccc2CN1[C@@H]1CCN(c2c(F)cccc2F)C1 [Example 19, 3-[(R)-1-(2,6-Difluoro-phenyl)-pyrrolidin-3-yl]-1-(2-trifluoromethyl-benzyl)-3,4-dihydro-1H-quinazolin-2-one] — within 1.5-fold, 53 nM
- Cc1cccc(F)c1N1CCC(N2Cc3ccccc3N(Cc3ccccc3OC3CCOCC3)C2=O)CC1 [Example 53, 3-[1-(2-Fluoro-6-methyl-phenyl)-piperidin-4-yl]-1-[2-(tetrahydro-pyran-4-yloxy)-benzyl]-3,4-dihydro-1H-quinazolin-2-one] — 1.7-fold lower, 32 nM
- Cc1cccc(F)c1N1CCC(N2Cc3ccccc3N(Cc3cccnc3C(F)(F)F)C2=O)CC1 [Example 65, 3-[1-(2-Fluoro-6-methyl-phenyl)-piperidin-4-yl]-1-(2-trifluoromethyl-pyridin-3-ylmethyl)-3,4-dihydro-1H-quinazolin-2-one] — within 1.5-fold, 67 nM
- Cc1cccc(F)c1N1CCC(N2Cc3ccccc3N(Cc3ccccc3C3CC3)C2=O)CC1 [Example 56, 1-(2-Cyclopropyl-benzyl)-3-[1-(2-fluoro-6-methyl-phenyl)-piperidin-4-yl]-3,4-dihydro-1H-quinazolin-2-one] — 2-fold lower, 28 nM
- COc1nccnc1CN1C(=O)N(C2CCN(c3c(F)cccc3C#N)CC2)Cc2ccccc21 [Example 39, 3-Fluoro-2-{4-[1-(3-methoxy-pyrazin-2-ylmethyl)-2-oxo-1,4-dihydro-2H-quinazolin-3-yl]-piperidin-1-yl}-benzonitrile] — 19-fold higher, 1050 nM
- COc1ccccc1N1CCC(N2Cc3cccc(OC)c3N(Cc3ccccc3C(F)(F)F)C2=O)CC1 [Example 4, 8-Methoxy-3-[1-(2-methoxy-phenyl)-piperidin-4-yl]-1-(2-trifluoromethyl-benzyl)-3,4-dihydro-1H-quinazolin-2-one] — 17-fold higher, 944 nM
- COc1nccc(C)c1N1CC[C@@H](N2Cc3ccccc3N(Cc3ccccc3C(F)(F)F)C2=O)C1 [Example 31, 3-[(R)-1-(2-Methoxy-4-methyl-pyridin-3-yl)-pyrrolidin-3-yl]-1-(2-trifluoromethyl-benzyl)-3,4-dihydro-1H-quinazolin-2-one] — within 1.5-fold, 37 nM
- Cc1cccc(F)c1N1CCC(N2Cc3ccccc3N(Cc3ccccc3OCCO)C2=O)CC1 [Example 50, 3-[1-(2-Fluoro-6-methyl-phenyl)-piperidin-4-yl]-1-[2-(2-hydroxy-ethoxy)-benzyl]-3,4-dihydro-1H-quinazolin-2-one] — 47-fold higher, 2560 nM
- Cc1cccc(C)c1N1CC[C@H](N2Cc3ccccc3N(Cc3ccccc3C(F)(F)F)C2=O)C1 [Example 14, 3-[(S)-1-(2,6-Dimethyl-phenyl)-pyrrolidin-3-yl]-1-(2-trifluoromethyl-benzyl)-3,4-dihydro-1H-quinazolin-2-one] — 11-fold higher, 627 nM
- COc1cccc(C)c1N1CCC(N2Cc3cccc(OC)c3N(Cc3ccccc3C(F)(F)F)C2=O)CC1 [Example 25, 8-Methoxy-3-[1-(2-methoxy-6-methyl-phenyl)-piperidin-4-yl]-1-(2-trifluoromethyl-benzyl)-3,4-dihydro-1H-quinazolin-2-one] — 9-fold higher, 497 nM
- Cc1cccc(F)c1N1CCC(N2Cc3nnccc3N(Cc3ccccc3C(F)(F)F)C2=O)CC1 [Example 66, 7-[1-(2-Fluoro-6-methyl-phenyl)-piperidin-4-yl]-5-(2-trifluoromethyl-benzyl)-7,8-dihydro-5H-pyrimido[5,4-c]pyridazin-6-one] — 35-fold higher, 1920 nM
- Cc1cccc(F)c1N1CCC(N2Cc3ccccc3N(Cc3ncccc3OC(C)C)C2=O)CC1 [Example 60, 3-[1-(2-Fluoro-6-methyl-phenyl)-piperidin-4-yl]-1-(3-isopropoxy-pyridin-2-ylmethyl)-3,4-dihydro-1H-quinazolin-2-one] — 2-fold lower, 28 nM
